The values that follow come from PubChem BioAssay (NCI).

Among the test systems are 786-0 renal; EKVX NSCLC; HCC-2998 colon; HOP-62 NSCLC; KM12 colon; LOX IMVI melanoma; OVCAR-8 ovarian; SK-MEL-2 melanoma; SNB-75 CNS; UO-31 renal.
Common to all, as to assay: growth of human tumour cells (NCI), 48 h

Structures are written as SMILES.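 Step 1: Grow cells in 96-well plates. Step 2: Expose to compound for 48 hours at 5 concentrations. Step 3: Interpolate endpoints linearly; if unreached, use highest concentration. At the GI50, growth is halved. At the TGI there is no net growth.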

For `COc1ccc(C(=O)O[C@H]2[C@H](O[C@H]3[C@@H](O)COC(O[C@H]4C[C@H]5[C@@H]6CC=C7C[C@@H](O)CC[C@]7(C)[C@H]6CC[C@]5(C)[C@H]4[C@H](C)C(=O)CCC(C)C)[C@@H]3OC(C)=O)OC[C@@H](O)[C@@H]2O)c(C)c1` (some centres undefined), the GI50 is under 0.01 µM with 786-0 renal; 1.26 µM in the experiment with EKVX NSCLC; 4.1 µM in the experiment with HCC-2998 colon; under 0.01 µM with HOP-62 NSCLC; 0.0674 µM in the experiment on KM12 colon; under 0.01 µM with LOX IMVI melanoma. For the same compound, the GI50 with OVCAR-8 ovarian is 20.1 µM; in the experiment with SK-MEL-2 melanoma it was under 0.01 µM; in the experiment with SNB-75 CNS it was under 0.01 µM; in the experiment on UO-31 renal, under 0.01 µM. Moreover, the TGI with 786-0 renal was 7.38 µM; in the experiment with EKVX NSCLC, 26.9 µM; in the experiment with HCC-2998 colon, 25.2 µM; in the experiment on HOP-62 NSCLC it was 7.51 µM; in the experiment on KM12 colon, 21.3 µM; with LOX IMVI melanoma it was 0.0173 µM. In addition, the TGI with OVCAR-8 ovarian was over 100 µM; in the experiment on SK-MEL-2 melanoma it was 3.23 µM; with SNB-75 CNS, 13.2 µM; in the experiment with UO-31 renal, 0.0335 µM.

On to `CC(=O)[CH-]C(=O)c1ccccc1.CC(=O)[CH-]C(=O)c1ccccc1.CC(C)CCC[C@H](C)C1CCC2[C@@H]3CC=C4C[C@@H]([O-])CC[C@]4(C)C3CC[C@@]21C.CC(C)CCC[C@H](C)C1CCC2[C@@H]3CC=C4C[C@@H]([O-])CC[C@]4(C)C3CC[C@@]21C.Cl.[Ti+4]` (some centres undefined), for which the GI50 in the experiment on 786-0 renal, in the experiment with EKVX NSCLC, in the experiment on HCC-2998 colon, in the experiment on HOP-62 NSCLC, in the experiment on KM12 colon and in the experiment with LOX IMVI melanoma was over 25 µM in each case. In addition, the GI50 with OVCAR-8 ovarian was over 25 µM; in the experiment on SK-MEL-2 melanoma, over 25 µM; in the experiment on SNB-75 CNS it was 22.1 µM; with UO-31 renal, over 25 µM. The TGI in the experiment on 786-0 renal, in the experiment on EKVX NSCLC, with HCC-2998 colon, in the experiment on HOP-62 NSCLC, in the experiment on KM12 colon and with LOX IMVI melanoma was over 25 µM in each case. For the same compound, the TGI with OVCAR-8 ovarian, in the experiment on SK-MEL-2 melanoma, in the experiment with SNB-75 CNS and with UO-31 renal was over 25 µM in each case.

For `CCN(CC)CCN1C(=O)C2C3C(=O)CC(C)(CC3C)C2C1=O` (centres undefined), the GI50 in the experiment on 786-0 renal, in the experiment on EKVX NSCLC, in the experiment with HCC-2998 colon, in the experiment on HOP-62 NSCLC, with KM12 colon and in the experiment with LOX IMVI melanoma was over 100 µM in each case. Also, the GI50 in the experiment with OVCAR-8 ovarian, with SK-MEL-2 melanoma, with SNB-75 CNS and in the experiment on UO-31 renal was over 100 µM throughout. The TGI in the experiment with 786-0 renal, in the experiment on EKVX NSCLC, in the experiment with HCC-2998 colon, with HOP-62 NSCLC, with KM12 colon and in the experiment with LOX IMVI melanoma was over 100 µM in each case. Further, the TGI in the experiment on OVCAR-8 ovarian, in the experiment with SK-MEL-2 melanoma, in the experiment on SNB-75 CNS and in the experiment with UO-31 renal was over 100 µM throughout.

Turning to `Cc1ccc(Cl)cc1NC(=O)c1cc2ccccc2cc1O`, the GI50 is 0.507 µM in the experiment with 786-0 renal; 0.342 µM in the experiment on EKVX NSCLC; 0.692 µM in the experiment with HCC-2998 colon; 0.224 µM in the experiment on HOP-62 NSCLC; 0.396 µM with KM12 colon; 0.213 µM with LOX IMVI melanoma. Also, the GI50 with OVCAR-8 ovarian was 0.356 µM; in the experiment on SK-MEL-2 melanoma it was 0.19 µM; with SNB-75 CNS it was 0.52 µM; in the experiment with UO-31 renal, 0.201 µM. For the same compound, the TGI in the experiment on 786-0 renal amounted to 1.94 µM; in the experiment on EKVX NSCLC, 4.51 µM; in the experiment on HCC-2998 colon, 2.47 µM; in the experiment on HOP-62 NSCLC, 0.673 µM; with KM12 colon, 1.89 µM; in the experiment on LOX IMVI melanoma it was 1.49 µM. Besides, the TGI in the experiment with OVCAR-8 ovarian was determined as 12.4 µM; in the experiment on SK-MEL-2 melanoma, 0.707 µM; in the experiment with SNB-75 CNS, 15.3 µM; in the experiment on UO-31 renal, 1.47 µM.

As for `Nc1nnnc2nc[nH]c12`, the GI50 is 0.96 µM in the experiment on 786-0 renal; 0.7 µM in the experiment with EKVX NSCLC; 1.26 µM with HCC-2998 colon; 0.907 µM in the experiment with HOP-62 NSCLC; 4.11 µM in the experiment with KM12 colon; 0.455 µM in the experiment with LOX IMVI melanoma. The GI50 in the experiment with OVCAR-8 ovarian is 1.26 µM; in the experiment with SK-MEL-2 melanoma, 1.06 µM; in the experiment with UO-31 renal, 0.523 µM. In addition, the TGI in the experiment with 786-0 renal is over 100 µM; with EKVX NSCLC, over 100 µM; in the experiment with HCC-2998 colon, over 34.7 µM; in the experiment with HOP-62 NSCLC, over 58 µM; in the experiment with KM12 colon, over 100 µM; in the experiment on LOX IMVI melanoma, over 25.8 µM. Also, the TGI in the experiment with OVCAR-8 ovarian was over 100 µM; in the experiment on SK-MEL-2 melanoma it was 42.4 µM; with SNB-75 CNS, over 100 µM; in the experiment on UO-31 renal it was over 100 µM.
